Patent US3985875A, “ω-(N-acylamino)alkylphosphoryl ethanolamines, pharmaceutical compositions containing them, and their uses” (Dainippon Pharmaceutical Co., Ltd., priority 1974, dated 1976)
Like-named read-outs stand apart in the source and are kept apart here.

Legend:
renal hypertensive rats [1] = assay: Antihypertensive activity in renal hypertensive rats, i.m. (Table 3); assay type: in vivo, rat; details: 30 mg/kg/day i.m.
Method: (§1) An aqueous solution or suspension in peanut oil of each test compound as administered intramuscularly (i.m.) or orally (p.o.) at a dose of 30 to 100 mg/kg (body weight)/day once every morning over the period of 6 to 7 days.
(§2) The blood pressure of each rat was measured daily before and 5 hours after each administration. Furthermore, the blood pressure was measured every morning after drug withdrawal over a period of 3 to 6 days.
(§3) Test compounds (1)-(4) decreased the blood pressure of renal hypertensive rats with a dose of 30 mg/kg/day i.m.. […] The antihypertensive rats with a dose of 100 mg/kg/day p.o..

Renin = biological target: T1, Renin (Homo sapiens, UniProt P00797); assay: Renin-inhibitory activity, Method I (inhibition of Angiotensin I formation, RIA); assay type: biochemical; details: for inhibition at 313 µg/mL: 0.313 mg/ml; for inhibition at 625 µg/mL: 0.625 mg/ml; for inhibition at 1250 µg/mL: 1.25 mg/ml; for inhibition at 2500 µg/mL: 2.5 mg/ml
T1 sequence (P00797 67-406): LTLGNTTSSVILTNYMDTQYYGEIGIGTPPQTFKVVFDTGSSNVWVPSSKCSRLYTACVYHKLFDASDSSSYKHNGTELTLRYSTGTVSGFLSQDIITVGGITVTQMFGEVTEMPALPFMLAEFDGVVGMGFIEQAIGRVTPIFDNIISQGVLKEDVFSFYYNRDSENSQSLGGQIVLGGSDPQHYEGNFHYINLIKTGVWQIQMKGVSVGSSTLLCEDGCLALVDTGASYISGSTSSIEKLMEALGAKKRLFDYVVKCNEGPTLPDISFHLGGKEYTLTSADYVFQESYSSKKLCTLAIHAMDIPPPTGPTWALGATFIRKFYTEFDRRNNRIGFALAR
Method: Renin (see E. Haas et al. Circulation Research, Vol. 19, p. 739, 1966 and Vol. 31, p. 65, 1972) was incubated in Angiotensinogen at 37° C. for 2 to 6 hours. Similarly, renin was incubated under the same conditions in the presence of 0.313 to 2.5 mg/ml. of each of the test compounds listed above. The amount of Angiotensin I was measured by radioimmunoassay (RIA) (E. Haber et al., J. Clin. Endocrinol., Vol. 29, p. 1349, 1969), and made the renin activity.
(§4) The results are shown in Table 1 (the rate of inhibiting the formation of Angiotensin I, as determined by Method I, when the plasma was incubated at 37° C. for 2, 4 and 6 hours respectively), and Table 2 (the rate of inhibiting the formation of Angiotensin I when the plasma was incubated at 37° C. for 4 hours, with the compound concentration of 1.25 mg/ml.)

High renin plasma = biological target: T2, High renin plasma (Canis lupus familiaris, UniProt Q6DYE7); assay: Renin-inhibitory activity, Method II (high renin plasma of dog, inhibition of Angiotensin I formation); assay type: biochemical; details: Table 2; 37°C, 4 hours, 1.25 mg/ml; read-out: Rate of inhibiting the formation of Angiotensin I determined by Method II
T2 construct: High renin plasma prepared by constriction of the renal artery of a dog anesthetized with Nembutal; from tissue; host or cells: plasma of a dog with constricted renal artery
T2 sequence (Q6DYE7 66-403): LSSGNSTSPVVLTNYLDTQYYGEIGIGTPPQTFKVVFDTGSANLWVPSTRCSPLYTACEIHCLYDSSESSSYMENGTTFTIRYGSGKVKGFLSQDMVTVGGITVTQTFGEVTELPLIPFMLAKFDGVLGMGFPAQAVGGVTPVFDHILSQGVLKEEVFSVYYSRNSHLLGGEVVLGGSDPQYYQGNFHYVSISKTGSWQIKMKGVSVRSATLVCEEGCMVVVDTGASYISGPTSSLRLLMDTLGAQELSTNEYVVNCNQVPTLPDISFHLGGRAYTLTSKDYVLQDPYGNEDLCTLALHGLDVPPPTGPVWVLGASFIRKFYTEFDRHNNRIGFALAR
Method: High renin plasma prepared by constriction of the renal artery of a dog anesthetized with Nembutal (the plasma which when incubated at 37°40 C. for 6 hours, yields 30 to […]. of Angiotensin I) was incubated at 37° C. for 2 to 6 hours in the same way as in Method I, and also under the same conditions in the presence of 1.25 mg/ml. of each of the test compounds.
as §4

renal hypertensive rats [2] = assay: Antihypertensive activity in rats, p.o. (Table 4); assay type: in vivo, rat; details: 100 mg/kg/day p.o.
Method: as §1, §2, §3

plasma cholesterol level = assay: Cholesterol-lowering activity in rats (modified Greenberg method); assay type: in vivo, rat; details: 100 mg/Kg oral once a day, 5 consecutive days
Method: The effect of each of the test compounds on the plasma cholesterol level was examined in rats according to a slightly modified form of the C. M. Greenberg et al. method described in Am. J. Physiol., Vol. 202 (1961), p. 732. Rats were treated once a day with a 100 mg/Kg oral dose for 5 consecutive days instead of 7 days.

[3] = 1st day, 0 h (immediately before administration)
[4] = 1st day, 5 hours after administration
[5] = 2nd day, 0 h (immediately before administration)
[6] = 2nd day, 5 hours after administration
[7] = 3rd day, 0 h (immediately before administration)
[8] = 3rd day, 5 hours after administration
[9] = 4th day, 0 h (immediately before administration)
[10] = 4th day, 5 hours after administration
[11] = 5th day, 0 h (immediately before administration)
[12] = 5th day, 5 hours after administration
[13] = 6th day, 0 h (immediately before administration)
[14] = 6th day, 5 hours after administration
[15] = incubating time 2 hours, read-out: Rate of inhibiting the formation of Angiotensin I
[16] = incubating time 4 hours, read-out: Rate of inhibiting the formation of Angiotensin I
[17] = incubating time 6 hours, read-out: Rate of inhibiting the formation of Angiotensin I
[18] = Table 2, 37°C, 4 hours, read-out: Rate of inhibiting the formation of Angiotensin I determined by Method I
[19] = 7th day, 0 h (immediately before administration)
[20] = 7th day, 5 hours after administration

| inhibition at 313 µg/mL (Renin; [15]) [%] | inhibition at 313 µg/mL (Renin; [16]) [%] | inhibition at 313 µg/mL (Renin; [17]) [%] | inhibition at 625 µg/mL (Renin; [15]) [%] | inhibition at 625 µg/mL (Renin; [16]) [%] | inhibition at 625 µg/mL (Renin; [17]) [%] | inhibition at 1250 µg/mL (Renin; [15]) [%] | inhibition at 1250 µg/mL (Renin; [16]) [%] | inhibition at 1250 µg/mL (Renin; [17]) [%] | inhibition at 2500 µg/mL (Renin; [15]) [%] | inhibition at 2500 µg/mL (Renin; [16]) [%] | inhibition at 2500 µg/mL (Renin; [17]) [%] | inhibition at 1250 µg/mL (Renin; [18]) [%] | inhibition at 1250 µg/mL (High renin plasma) [%] | Compound | Changes of blood pressure after drug withdrawal (renal hypertensive rats [2]; 1st day after withdrawal) [mmHg] | Changes of blood pressure (renal hypertensive rats [2]; [3]) [mmHg] | Changes of blood pressure (renal hypertensive rats [2]; [4]) | Changes of blood pressure after drug withdrawal (renal hypertensive rats [2]; 2nd day after withdrawal) [mmHg] | Changes of blood pressure (renal hypertensive rats [2]; [6]) [mmHg] | Changes of blood pressure after drug withdrawal (renal hypertensive rats [2]; 3rd day after withdrawal) [mmHg] | other results |
| --- | --- | --- | --- | --- | --- | --- | --- | --- | --- | --- | --- | --- | --- | --- | --- | --- | --- | --- | --- | --- | --- |
| 25 | 27 | 22 | 50 | 45 | 47 | 75 | 78 | 80 | 93 | 100 | 100 | 78 | 59 | CCC=CCC=CCC=CCCCCCCCC(=O)NCCCOP(=O)(O)OCCN [Compound (2), 3-(Octadeca-9,12,15-trienoylamino)propylphosphoryl ethanolamine] | – | – | – | – | – | – | Changes of blood pressure after drug withdrawal (renal hypertensive rats [1]; 1st day after withdrawal): -34 mmHg; Changes of blood pressure (renal hypertensive rats [1]; [3]): 0 mmHg; Changes of blood pressure (renal hypertensive rats [1]; [4]): -17 mmHg; Changes of blood pressure after drug withdrawal (renal hypertensive rats [1]; 2nd day after withdrawal): -21 mmHg; Changes of blood pressure (renal hypertensive rats [1]; [5]): -1 mmHg; Changes of blood pressure (renal hypertensive rats [1]; [6]): -26 mmHg; Changes of blood pressure after drug withdrawal (renal hypertensive rats [1]; 3rd day after withdrawal): -7 mmHg; Changes of blood pressure (renal hypertensive rats [1]; [7]): -20 mmHg; Changes of blood pressure (renal hypertensive rats [1]; [8]): -31 mmHg; Changes of blood pressure (renal hypertensive rats [1]; [9]): -22 mmHg; Changes of blood pressure (renal hypertensive rats [1]; [10]): -34 mmHg; Changes of blood pressure (renal hypertensive rats [1]; [11]): -23 mmHg; Changes of blood pressure (renal hypertensive rats [1]; [12]): -39 mmHg; Changes of blood pressure (renal hypertensive rats [1]; [13]): -29 mmHg; Changes of blood pressure (renal hypertensive rats [1]; [14]): -44 mmHg |
| 0 | 33 | 40 | 50 | 50 | 53 | 75 | 80 | 80 | 100 | 93 | 92 | 78 | 56 | NCCOP(=O)(O)OCCNC(=O)COc1ccc(Oc2ccc(Cl)cc2)cc1 [Compound (5), 2-[4-(4'-chlorophenoxy)phenoxyacetylamino]ethylphosphoryl ethanolamine] | -49 | 0 | +1 mmHg | -34 | -9 | -26 | Changes of blood pressure (renal hypertensive rats [2]; [7]): -17 mmHg; Changes of blood pressure (renal hypertensive rats [2]; [8]): -44 mmHg; Changes of blood pressure after drug withdrawal (renal hypertensive rats [2]; 4th day after withdrawal): -21 mmHg; Changes of blood pressure (renal hypertensive rats [2]; [9]): -21 mmHg; Changes of blood pressure (renal hypertensive rats [2]; [10]): -41 mmHg; Changes of blood pressure after drug withdrawal (renal hypertensive rats [2]; 5th day after withdrawal): -15 mmHg; Changes of blood pressure (renal hypertensive rats [2]; [11]): -34 mmHg; Changes of blood pressure (renal hypertensive rats [2]; [12]): -43 mmHg; Changes of blood pressure after drug withdrawal (renal hypertensive rats [2]; 6th day after withdrawal): -7 mmHg; Changes of blood pressure (renal hypertensive rats [2]; [13]): -37 mmHg; Changes of blood pressure (renal hypertensive rats [2]; [14]): -49 mmHg; Changes of blood pressure (renal hypertensive rats [2]; [19]): -40 mmHg; Changes of blood pressure (renal hypertensive rats [2]; [20]): -49 mmHg; Cholesterol-lowering activity (plasma cholesterol level): 48.6% |
| 25 | 33 | 33 | 50 | 56 | 53 | 75 | 78 | 67 | 100 | 93 | 89 | 78 | 55 | CC(Oc1ccc(Oc2ccc(Cl)cc2)cc1)C(=O)NCCOP(=O)(O)OCCN (stereo not drawn) [Compound (6), 2-{α-[4-(4'-chlorophenoxy)phenoxy]propionylamino} ethylphosphoryl ethanolamine] | -37 | 0 | -9 mmHg | -32 | -4 | -18 | Changes of blood pressure (renal hypertensive rats [2]; [5]): +4 mmHg; Changes of blood pressure (renal hypertensive rats [2]; [7]): -14 mmHg; Changes of blood pressure (renal hypertensive rats [2]; [8]): -25 mmHg; Changes of blood pressure after drug withdrawal (renal hypertensive rats [2]; 4th day after withdrawal): -8 mmHg; Changes of blood pressure (renal hypertensive rats [2]; [9]): -18 mmHg; Changes of blood pressure (renal hypertensive rats [2]; [10]): -27 mmHg; Changes of blood pressure after drug withdrawal (renal hypertensive rats [2]; 5th day after withdrawal): -2 mmHg; Changes of blood pressure (renal hypertensive rats [2]; [11]): -27 mmHg; Changes of blood pressure (renal hypertensive rats [2]; [12]): -41 mmHg; Changes of blood pressure after drug withdrawal (renal hypertensive rats [2]; 6th day after withdrawal): +1 mmHg; Changes of blood pressure (renal hypertensive rats [2]; [13]): -34 mmHg; Changes of blood pressure (renal hypertensive rats [2]; [14]): -47 mmHg; Changes of blood pressure (renal hypertensive rats [2]; [19]): -36 mmHg; Changes of blood pressure (renal hypertensive rats [2]; [20]): -51 mmHg; Cholesterol-lowering activity (plasma cholesterol level): 48.1% |
